Like-named read-outs stand apart in the source and are kept apart here.
Experiments:
H9 embryonic stem cells = settings: concentration at cell viability cutoff; cited from earlier work
[1] = test system: SOX17 (endoderm marker) in RUES2-GLR cells; assay: DevTox GLR-Endo assay: increase in percent SOX17-positive cells (AEID 3093, Sox17_up); type: cell-based, human; settings: for Emax: Homo sapiens; for HIT−CALL: tcpl plot AEID3093, COFF 20.3
Procedure: (§1) The total test chemical incubation period was 48 h.
(§2) (Supplementary Materials).

[2] = test system: SOX17 in H9 human ESC line; settings: SOX17 half-maximal inhibition concentration; read-out: hPST IC50; cited from earlier work
[3] = cited from earlier work; for Development Toxicant Classification: Table S2; for Classification: developmental toxicant classification (Teratogen / Non-Teratogen) of reference and training chemicals, ref DOI per chemical: 10.1093/toxsci/kft239, 10.1093/toxsci/kfaa014, 10.1177/026119290203000204, 10.1038/s41598-020-59542-x; for DT Class.: developmental toxicant classification
[4] = test system: SOX17 (endoderm marker) in RUES2-GLR cells; assay: DevTox GLR-Endo assay: decrease in percent SOX17-positive cells (AEID 3094, Sox17_dn); settings: for Hit Call: Table S2, SOX17-positive cells, cutoff 3*bmad; for DevTox ACC: Table S2, percent SOX17-positive cells; for DevTox-GLR Endo ACC: activity concentration at cutoff, SOX17-positive cells; for HIT−CALL: tcpl plot AEID3094, COFF 20.3
Method in brief: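 Readouts are loss of SOX17-positive fraction and reduced cell number in endoderm-differentiating RUES2-GLR cells after 48 h of chemical exposure. Controls: undifferentiated and differentiated cells, 0.2% DMSO, and 1 µM SB431542; at least four biological replicates.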

[5] = test system: SOX2 (ectoderm and pluripotency marker) in RUES2-GLR cells; assay: DevTox GLR-Endo assay: increase in percent SOX2-positive cells (AEID 3095, Sox2_up); settings: for AC50 / Emax: Homo sapiens; for AC50: read-out: ga (winning model); for Emax: read-out: tp (winning model); for MAX_MEAN: tcpl plot AEID3095, maximum mean response; for MAX_MED: tcpl plot AEID3095, maximum median response;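 on all read-outs here: cells exposed to test chemicals for 48 h in total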
H9 human ESC line = settings: cited from earlier work
RUES2-GLR cells [6] = assay: in vitro; settings: for Emax: Homo sapiens, read-out: Cell Count % Max Inhibition; for Cell Count ACC / DevTox-GLR Endo CC: human, 48 h
in vitro = settings: human
[7] = test system: o/c ratio in H9 embryonic stem cells; settings: Teratogen Index, o/c ratio; cited from earlier work
[8] = test system: BRA (mesoderm marker) in RUES2-GLR cells; assay: DevTox GLR-Endo assay: increase in percent BRA-positive cells (AEID 3096, Bra_up); type: cell-based, human
Procedure: as §1, §2

H9 ESCs = settings: global gene expression at 6, 96 and 192 h; cited from earlier work
RUES2-GLR cells [9] = assay: DMSO tolerance test under directed endoderm differentiation (SOX17-positive cells, cell count); type: cell-based, human; settings: DMSO 0.2%
Procedure: To identify biomarker-positive populations during directed endoderm differentiation, RUES2-GLR cells were evaluated by high-content confocal imaging. […] A qualitative loss of SOX2 expression and increased SOX17 expression were evident, indicating loss in pluripotency and commitment to definitive endoderm, respectively (Figure 2A).

[10] = tcpl plot AEID3093, maximum mean response, read-out: MAX_MEAN
[11] = tcpl plot AEID3093, maximum median response, read-out: MAX_MED
[12] = chemicals common with quickPredict
[13] = Homo sapiens, 48 h, read-out: DevTox-GLR Endo AC50 (µM), SOX17 half-maximal activity concentration, 48 h exposure
[14] = Homo sapiens, read-out: DevTox % Max Inhibition
[15] = Homo sapiens, read-out: MAX_MEAN
[16] = Homo sapiens, read-out: MAX_MED
[17] = Homo sapiens, read-out: ga (winning model), tcpl plot AEID3094, gain parameter of winning curve fit (log concentration, µM axis), hit calls only (converted)
[18] = Homo sapiens, read-out: tp (winning model)
[19] = cytotoxicity half-maximal concentration

Compound | Emax [1, 10] [%] | Emax [1, 11] [%] | HIT−CALL [1] | IC50 [2] [µM] | Development Toxicant Classification [3] | Classification [3] | DT Class. ([3]; chemicals common with hPST) | DT Class. [3, 12] | AC50 [4, 13] [µM] | Emax [4, 14] [%] | Emax [4, 15] [%] | Emax [4, 16] [%] | AC50 [4, 17] [µM] | Emax [4, 18] [%] | Hit Call [4] | DevTox ACC ([4]; 48 h exposure) [µM] | DevTox-GLR Endo ACC ([4]; 48 h exposure) [µM] | HIT−CALL [4] | MAX_MEAN [5] [Percent Activity] | MAX_MED [5] [Percent Activity] | also measured
O=c1[nH]cc(F)c(=O)[nH]1 [5-Fluorouracil] | 3.38 | 4.48 | 0 | 0.6 | Positive | Teratogen | Pos | Pos | 8.48 | 102 | 102 | 102 | 8.49 | 102 | Positive | 7.071 | 7.07 | 1 | 6.64 | 5.57 | quickPredict CV (H9 embryonic stem cells): 1.45 µM; AC50 [5]: 18.6 µM; Emax [5]: 5.33%; hPST TC50 (H9 human ESC line; [19]): 0.7 µM; hPST TC50 (H9 human ESC line; hPST cytotoxicity): 0.7 µM; effect on cell count (in words) (RUES2-GLR cells [6]): significant decreases in cell count; Emax (RUES2-GLR cells [6]): 91%; Cell Count ACC (RUES2-GLR cells [6]): 4.179 µM; DevTox-GLR Endo CC (RUES2-GLR cells [6]): 20.34 µM; CC50 at 48 h (in vitro): 5.72 µM; quickPredict TI [7]: 2.02 µM
CCCC(CCC)C(=O)O [Valproic Acid] | 7.73 | 5.59 | 0 | 2.6 | Positive | Teratogen | Pos | Pos | 124 | 22.3 | 22 | 22.3 | 123 | 29.3 | Positive | 177.332 | 177.33 | 1 | 1.25 | 0.475 | quickPredict CV (H9 embryonic stem cells): 271 µM; SOX17 ACC relative to cytotoxic concentration (in words) [4]: below cytotoxic concentrations; hPST TC50 (H9 human ESC line; [19]): 3.3 µM; hPST TC50 (H9 human ESC line; hPST cytotoxicity): 3.3 µM; Emax (RUES2-GLR cells [6]): 18.1%; Cell Count ACC (RUES2-GLR cells [6]): >200 µM; CC50 at 48 h (in vitro): > 200 µM; HIT−CALL ([8]; tcpl plot AEID3096, COFF 0.774): 0; MAX_MEAN ([8]; tcpl plot AEID3096, maximum mean response): 0.771 Percent Activity; MAX_MED ([8]; tcpl plot AEID3096, maximum median response): 0.815 Percent Activity; quickPredict TI [7]: 155 µM
CC1=C(/C=C/C(C)=C/C=C/C(C)=C/C(=O)O)C(C)(C)CCC1 | 4.3 | 3.82 | 0 | 0.07 | Positive | Teratogen | Pos | Pos | 0.1 | 101 | 101 | 101 | 0.101 | 99.2 | Positive | 0.04166 | 0.04 | 1 | 50.7 | 53.1 | Developmental Toxicant Classification ([3]; reference chemicals): Positive; IC50 ([4]; Homo sapiens, 48 h): 0.16 µM; % Max Inhibition ([4]; maximum inhibition of SOX17-positive cells, reference chemical testing, 48 h exposure): 93%; AC50 [5]: 87.1 µM; Emax [5]: 71.4%; hPST TC50 (H9 human ESC line; [19]): 33 µM; hPST TC50 (H9 human ESC line; hPST cytotoxicity): 33 µM; toxicological tipping point concentration (H9 ESCs): 17 ± 11 nM; Emax (RUES2-GLR cells [6]): 97.6%; Cell Count ACC (RUES2-GLR cells [6]): 3.839 µM; DevTox-GLR Endo CC (RUES2-GLR cells [6]): 3.84 µM; CC50 at 48 h (in vitro; RUES2-GLR cells under directed endoderm differentiation): 5.53 µM; increase of BRA protein expression (in words) ([8]; AEID 3096, 48 h exposure): lack of significant BRA perturbation; quickPredict TI [7]: 0.003 µM
C[S+](C)[O-] [DMSO, dimethyl sulfoxide] | – | – | – | – | – | – | – | – | – | – | – | – | – | – | – | – | – | – | – | – | effect on cell counts (in words) (RUES2-GLR cells [9]): without affecting cell counts; reduction of the SOX17 population (RUES2-GLR cells [9]): 19.5%

From PMC9321663, “The DevTox Germ Layer Reporter Platform: An Assay Adaptation of the Human Pluripotent Stem Cell Test” (Toxics, 2022)
